Test results taken from patent US7491794B2, “Macrocyclic compounds as inhibitors of viral replication” (Intermune, Inc., priority 2003, dated 2009).
Read-outs that look alike come from different tables or passages of the source.

What was measured:
[1] = system: HCV sub-genomic replicon, GS4.3; experiment: Quantitation by ELISA of NPTII in the HCV sub-genomic replicon, GS4.3, Section B; assay type: cell-based; details: Hepatitis C virus, read-out: Replicon EC50
Excerpt: Quantitation by ELISA of the Selectable Marker Protein, Neomycin Phosphotransferase II (NPTII) in the HCV Sub-Genomic Replicon, GS4.3
The HCV sub-genomic replicon (1377/NS3-3′, accession No. AJ242652), stably maintained in HuH-7 hepatoma cells, was created by Lohmann et al. Science 285: 110-113 (1999). The replicon-containing cell culture, designated GS4.3, was obtained from Dr. Christoph Seeger of the Institute for Cancer Research, Fox Chase Cancer Center, Philadelphia, Pa.
GS4.3 cells were maintained at 37° C., 5% CO2, in DMEM (Gibco 11965-092) supplemented with L-glutamine 200 mM (100×) (Gibco25030-081), non-essential amino acids (NEAA)(Biowhittaker 13-114E), heat-inactivated (HI) Fetal Bovine Serum(FBS)(Hyclone SH3007.03) and 750 μg/ml geneticin (G418)(Gibco 10131-035). Cells were sub-divided 1:3 or 4 every 2-3 days.
24 hours prior to the assay, GS4.3 cells were collected, counted, and plated in 96-well plates (Costar 3585) at 7500 cells/well in 100 μl standard maintenance medium (above) and incubated in the conditions above. To initiate the assay, culture medium was removed, cells were washed once with PBS (Gibco 10010-023) and 90 μl Assay Medium (DMEM, L-glutamine, NEAA, 10% HI FBS, no G418) was added. Inhibitors were made as a 10× stock in Assay Medium, (3-fold dilutions from 10 μM to […] final concentration, final DMSO concentration 1%), 10 μl were added to duplicate wells, plates were rocked to mix, and incubated as above for 72 h.
An NPTII ELISA kit was obtained from AGDIA, Inc. (Compound direct ELISA test system for Neomycin Phosphotransferase II, PSP 73000/4800). Manufacturer's instructions were followed, with some modifications. 10×PEB-1 lysis buffer was made up to include 500 μM PMSF (Sigma P7626, 50 mM stock in isopropanol). After 72 h incubation, cells were washed once with PBS and 150 μl PEB-1 with PMSF was added per well. Plates were agitated vigorously for 15 minutes, room temperature, then frozen at −70° C. Plates were thawed, lysates were mixed thoroughly, and 100 μl were applied to an NPTII Elisa plate. A standard curve was made. Lysate from DMSO-treated control cells was pooled, serially diluted with PEB-1 with PMSF, and applied to duplicate wells of the ELISA plate, in a range of initial lysate amount of 150u1-2.5 ul. In addition, 100 μl buffer alone was applied in duplicate as a blank. Plates were sealed and gently agitated at room temperature for 2 h. Following capture incubation, the plates were washed 5×300 μl with PBS-T (0.5% Tween-20, PBS-T was supplied in the ELISA kit). For detection, a 1× dilution of enzyme conjugate diluent MRS-2 (5×) was made in PBS-T, into which 1:100 dilutions of enzyme conjugates A and B were added, as per instructions. Plates were resealed, and incubated with agitation, covered, room temperature, for 2 h. The washing was then repeated and 100 μl of room temperature TMB substrate was added. After approximately 30 minutes incubation (room temperature, agitation, covered), the reaction was stopped with 50 μl 3M sulfuric acid. Plates were read at 450 nm on a Molecular Devices Versamax plate reader.
Inhibitor effect was expressed as a percentage of DMSO-treated control signal, and inhibition curves were calculated using a 4-parameter equation: y=A+((B−A)/(1+((C/x)^D))), where C is half-maximal activity or EC50.

NS3-NS4A protease = target: T1, NS3-NS4A protease (Hepatitis C virus genotype 1a, UniProt P27958); experiment: NS3-NS4A protease assay (NS3 inhibition assay, RETS1 substrate), Section B; assay type: biochemical
T1 construct: Recombinant E. coli or Baculovirus full-length NS3 was diluted to 3.33 μM with assay buffer; made in house; host or cells: E. coli or baculovirus (BV) system
T1 sequence (P27958 1027-1657): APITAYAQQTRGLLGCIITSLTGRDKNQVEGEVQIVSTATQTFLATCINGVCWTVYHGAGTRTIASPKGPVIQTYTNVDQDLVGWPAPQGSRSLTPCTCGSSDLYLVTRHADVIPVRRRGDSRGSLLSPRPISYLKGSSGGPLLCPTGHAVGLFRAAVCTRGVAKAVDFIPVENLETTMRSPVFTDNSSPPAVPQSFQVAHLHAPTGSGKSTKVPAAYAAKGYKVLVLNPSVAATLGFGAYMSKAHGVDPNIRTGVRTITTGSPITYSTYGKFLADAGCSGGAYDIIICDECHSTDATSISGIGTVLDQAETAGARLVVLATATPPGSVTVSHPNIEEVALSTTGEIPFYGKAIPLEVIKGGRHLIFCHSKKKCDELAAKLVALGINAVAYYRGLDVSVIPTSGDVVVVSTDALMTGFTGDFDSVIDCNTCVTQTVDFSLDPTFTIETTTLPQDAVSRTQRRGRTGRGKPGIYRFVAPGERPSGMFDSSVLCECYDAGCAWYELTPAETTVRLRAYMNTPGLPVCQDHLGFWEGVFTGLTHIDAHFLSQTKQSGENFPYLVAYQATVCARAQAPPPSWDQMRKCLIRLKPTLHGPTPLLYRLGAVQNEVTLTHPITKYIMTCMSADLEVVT
Summary of the method: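 Full-length NS3 (E. coli or baculovirus) precomplexed with excess NS4A-2 peptide, run at 2 nM (E. coli) or 3 nM (BV) NS3; compounds pre-incubated 10 min at room temperature before RETS1 substrate. Fluorescence (ex 335/em 495 nm) read kinetically 30 min; IC50 from four-parameter fit, converted to Ki via Ki=IC50/(1+[S]/Km).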

Row | SMILES | EC50 ([1]; GS4.3 cells, 72 h incubation) [µM] | IC50 (NS3-NS4A protease; read-out: NS3-NS4A IC50) [µM] | EC50 ([1]; 72 h) [µM] | IC50 (NS3-NS4A protease) [µM]
1 | O=C(NC1CCCC1)N[C@H]1CCCCC/C=C\[C@@H]2C[C@@]2(C(=O)NS(=O)(=O)C2CC2)NC(=O)[C@@H]2C[C@@H](NC(=O)N3Cc4ccccc4C3)CN2C1=O [AR00304014, (1S,4R,6S,14S,18R)-1,3-Dihydro-isoindole-2-carboxylic acid [14-(3-cyclopentyl-ureido)-4-cyclopropanesulfonylaminocarbonyl-2,15-dioxo-3,16-diaza-tricyclo[14.3.0.0^4,6]nonadec-7-en-18-yl]-amide] | < 0.1 | < 0.1 |  | 
2 | CC(C)(C)OC(=O)N[C@H]1CCCCC/C=C\[C@@H]2C[C@@]2(C(=O)O)NC(=O)[C@@H]2C[C@@H](OC(=O)N3CCc4cc(F)ccc4C3)CN2C1=O [AR00304063, (1S,4R,6S,14S,18R)-14-tert-Butoxycarbonylamino-18-(6-fluoro-3,4-dihydro-1H-isoquinoline-2-carbonyloxy)-2,15-dioxo-3,16-diaza-tricyclo[14.3.0.0^4,6]nonadec-7-ene-4-carboxylic acid] | < 10 | < 1 |  | 
3 | CC(C)(C)OC(=O)N[C@H]1CCCCC/C=C\[C@@H]2C[C@@]2(C(=O)O)NC(=O)[C@@H]2C[C@@H](OC(=O)N3Cc4ccccc4C4(CCC4)C3)CN2C1=O [AR00304065, (1S,4R,6S,14S,18R)-14-tert-Butoxycarbonylamino-18-(4,4-spirocyclobutyl-3,4-dihydro-1H-isoquinoline-2-carbonyloxy)-2,15-dioxo-3,16-diaza-tricyclo[14.3.0.0^4,6]nonadec-7-ene-4-carboxylic acid] | < 10 | < 1 |  | 
4 | CC(C)(C)OC(=O)N[C@H]1CCCCCC=C[C@@H]2C[C@@]2(C(=O)O)NC(=O)[C@@H]2C[C@@H](OC(=O)N3Cc4ccccc4C(C)(C)C3)CN2C1=O [AR00304066, (1S,4R,6S,14S,18R)-14-tert-Butoxycarbonylamino-18-(4,4-dimethyl-3,4-dihydro-1H-isoquinoline-2-carbonyloxy)-2,15-dioxo-3,16-diaza-tricyclo[14.3.0.0^4,6]nonadec-7-ene-4-carboxylic acid] | < 10 | < 1 |  | 
5 | CC1CN(C(=O)O[C@@H]2C[C@H]3C(=O)N[C@]4(C(=O)O)C[C@H]4C=CCCCCC[C@H](NC(=O)OC(C)(C)C)C(=O)N3C2)Cc2ccccc21 (stereo partly drawn) [AR00304067, (1S,4R,6S,14S,18R)-14-tert-Butoxycarbonylamino-18-(4-methyl-3,4-dihydro-1H-isoquinoline-2-carbonyloxy)-2,15-dioxo-3,16-diaza-tricyclo[14.3.0.0^4,6]nonadec-7-ene-4-carboxylic acid] | < 10 | < 1 |  | 
6 | CC(C)[C@@H](NC(=O)c1ccc(N(C)C)nc1)C(=O)N[C@H]1CCCCC/C=C\[C@@H]2C[C@@]2(C(=O)O)NC(=O)[C@@H]2C[C@@H](OC(=O)N3CCc4ccccc4C3)CN2C1=O [AR00304072, (1S,4R,6S,14S,18R)-18-(3,4-Dihydro-1H-isoquinoline-2-carbonyloxy)-14-{2-[(6-dimethylamino-pyridine-3-carbonyl)-amino]-3-methyl-butyrylamino}-2,15-dioxo-3,16-diaza-tricyclo[14.3.0.0^4,6]nonadec-7-ene-4-carboxylic acid] |  |  | < 10 | < 1
7 | CC(C)[C@@H](NC(=O)c1cccnc1)C(=O)N[C@H]1CCCCC/C=C\[C@@H]2C[C@@]2(C(=O)O)NC(=O)[C@@H]2C[C@@H](OC(=O)N3CCc4ccccc4C3)CN2C1=O [AR00304073, (1S,4R,6S,14S,18R)-18-(3,4-Dihydro-1H-isoquinoline-2-carbonyloxy)-14-{3-methyl-2-[(pyridine-3-carbonyl)-amino]-butyrylamino}-2,15-dioxo-3,16-diaza-tricyclo[14.3.0.0^4,6]nonadec-7-ene-4-carboxylic acid] |  |  | < 10 | < 1
8 | O=C(N[C@H]1CCCCC/C=C\[C@@H]2C[C@@]2(C(=O)O)NC(=O)[C@@H]2C[C@@H](OC(=O)N3CCc4c(F)cccc4C3)CN2C1=O)OC1CCCC1 [AR00304074, (1S,4R,6S,14S,18R)-14-Cyclopentyloxycarbonylamino-18-(5-fluoro-3,4-dihydro-1H-isoquinoline-2-carbonyloxy)-2,15-dioxo-3,16-diaza-tricyclo[14.3.0.0^4,6]nonadec-7-ene-4-carboxylic acid] | < 10 | < 1 |  | 
9 | O=C(N[C@H]1CCCCCC=C[C@@H]2C[C@@]2(C(=O)O)NC(=O)[C@@H]2C[C@@H](OC(=O)N3CCc4cccc(C(F)(F)F)c4C3)CN2C1=O)OC1CCCC1 [AR00304075, (1S,4R,6S,14S,18R)-14-Cyclopentyloxycarbonylamino-2,15-dioxo-18-(8-trifluoromethyl-3,4-dihydro-1H-isoquinoline-2-carbonyloxy)-3,16-diaza-tricyclo[14.3.0.0^4,6]nonadec-7-ene-4-carboxylic acid] | < 10 | < 1 |  | 
10 | O=C(N[C@H]1CCCCC/C=C\[C@@H]2C[C@@]2(C(=O)O)NC(=O)[C@@H]2C[C@@H](OC(=O)N3Cc4ccccc4C3)CN2C1=O)OC1CCCC1 [AR00304076, (1S,4R,6S,14S,18R)-14-Cyclopentyloxycarbonylamino-18-(1,3-dihydro-isoindole-2-carbonyloxy)-2,15-dioxo-3,16-diaza-tricyclo[14.3.0.0^4,6]nonadec-7-ene-4-carboxylic acid] | < 1 | < 0.1 |  | 
11 | O=C(NC1CCCC1)N[C@H]1CCCCC/C=C\[C@@H]2C[C@@]2(C(=O)O)NC(=O)[C@@H]2C[C@@H](OC(=O)N3CCc4c(F)cccc4C3)CN2C1=O [AR00304077, (1S,4R,6S,14S,18R)-14-(3-Cyclopentyl-ureido)-18-(5-fluoro-3,4-dihydro-1H-isoquinoline-2-carbonyloxy)-2,15-dioxo-3,16-diaza-tricyclo[14.3.0.0^4,6]nonadec-7-ene-4-carboxylic acid] | < 10 | < 0.1 |  | 
12 | O=C(NC1CCCC1)N[C@H]1CCCCC/C=C\[C@@H]2C[C@@]2(C(=O)O)NC(=O)[C@@H]2C[C@@H](OC(=O)N3CCc4cccc(C(F)(F)F)c4C3)CN2C1=O [AR00304078, (1S,4R,6S,14S,18R)-14-(3-Cyclopentyl-ureido)-2,15-dioxo-18-(8-trifluoromethyl-3,4-dihydro-1H-isoquinoline-2-carbonyloxy)-3,16-diaza-tricyclo[14.3.0.0^4,6]nonadec-7-ene-4-carboxylic acid] | < 1 | < 0.1 |  | 
13 | O=C(NC1CCCC1)N[C@H]1CCCCC/C=C\[C@@H]2C[C@@]2(C(=O)O)NC(=O)[C@@H]2C[C@@H](OC(=O)N3Cc4ccccc4C3)CN2C1=O [AR00304079, (1S,4R,6S,14S,18R)-14-(3-Cyclopentyl-ureido)-18-(1,3-dihydro-isoindole-2-carbonyloxy)-2,15-dioxo-3,16-diaza-tricyclo[14.3.0.0^4,6]nonadec-7-ene-4-carboxylic acid] | < 1 | < 0.1 |  | 
14 | O=C(NC1CCCC1)N[C@H]1CCCCC/C=C\[C@@H]2C[C@@]2(C(=O)NS(=O)(=O)C2CC2)NC(=O)[C@@H]2C[C@@H](OC(=O)N3CCc4c(F)cccc4C3)CN2C1=O [AR00304080, (1S,4R,6S,14S,18R)-5-Fluoro-3,4-dihydro-1H-isoquinoline-2-carboxylic acid 14-(3-cyclopentyl-ureido)-4-cyclopropanesulfonylaminocarbonyl-2,15-dioxo-3,16-diaza-tricyclo[14.3.0.0^4,6]nonadec-7-en-18-yl ester] | < 0.1 | < 0.1 |  | 
